“Also recorded” adds a separate entry of the source. Where a SMILES comes first, the peptide text is derived from it. [ ]: non-standard residue; d: D form. dNle = CCCC[C@@H](N)C(=O)O; Ahx = NCCCCCC(=O)O
Assays:
HGF [1] = biological target: T1, HGF (Homo sapiens, UniProt P14210); experiment: HGF binding, competition with 3H-Hinge
T1 construct: purchased R&D Systems (Minneapolis, Minn.)
Protocol: The binding of 6-AH analogs to HGF was assessed by competition using a soluble binding assay. 250 μl of PBS containing human HGF (1.25 ng) were incubated with ^3H-Hinge, the central dimerization domain of HGF, in the presence of varying concentrations of 6-AH analogs between 10^−13 M to 10^−7M (half-log dilutions) for 40 min at 37° C. The incubates were then spun through Bio-Gel P6 spin columns (400 μl packed volume) for 1 min to separate free and bound ^3H-Hinge and the eluent was collected. Five milliliters of scintillation fluid was added to the eluent, which contained the HGF bound ^3H-Hinge, and was then counted using scintillation counter. Total disintegrations per minute of bound ^3H-Hinge were calculated based on machine counting efficiency. The Ki values for the binding of the peptides were determined using the Prism 5. Competition binding curves were performed in triplicate.

HGF [2] = biological target: T1, HGF; experiment: HGF dimerization; assay type: biochemical; conditions: analog at 10^−10M, 30 minute incubation with heparin
Protocol: HGF dimerization was assessed using PAGE followed by silver staining (Kawas et al., 2011). Human HGF at a concentration of 0.08 ng/μl with or without 6-AH analogs was incubated with heparin at a final concentration of 5 μg/ml. Loading buffer was then added to each sample and the mixture separated by native PAGE using gradient Criterion XT precast gels (4-12% Bis-Tris; Biorad Laboratories, Hercules, Calif.). Next the gel was silver stained for the detection of the HGF monomers and dimers. Bands were quantitated from digital images using a UVP phosphoimager (Upland, Calif.).

Met = experiment: Inhibition of HGF-dependent Met phosphorylation in HEK293 cells; assay type: cell-based, human; conditions: 10 min
Protocol: HEK293 cells were seeded in 6 well tissue culture plates and grown to 95% confluency in DMEM containing 10% FBS. The cells were serum deprived for 24 h prior to the treatment to reduce the basal levels of phospho-Met. Following serum starvation, cocktails comprised of vehicle and HGF with/without 6-AH analogs were prepared and pre-incubated for 30 min at room temperature. The cocktail was then added to the cells for 10 min to stimulate the Met receptor and downstream proteins. Cells were harvested using RIPA lysis buffer (Millipore; Billerica, Mass.) fortified with phosphatase inhibitor cocktails 1 and 2 (Sigma-Aldrich; St. Louis, Mo.). The lysate was clarified by centrifugation at 15,000 n×g for 15 min, protein concentrations were determined using the BCA total protein assay (Pierce), and then appropriate volumes of the lysates were diluted with 2× reducing Laemmli buffer and heated for ten min at 95° C. Samples containing identical amounts of protein were resolved using SDS-PAGE (Criterion, BioRad Laboratories), transferred to nitrocellulose, and blocked in Tris-buffered saline (TBS) containing 5% milk for 1 h at room temperature. The phospho-Met antibody were added to the blocking buffer at a final concentration of 1:1000 and incubated at 4° C. overnight with gentle agitation. The membranes were then washed several times with water and TBS ([…]), a 1:5000 dilution of horseradish-peroxidase conjugated goat anti-rabbit antiserum was added, and the membranes further incubated for 1 h at room temperature. Proteins were visualized using the Supersignal West Pico Chemiluminescent Substrate system (Pierce, Fenton, Mo.) and molecular weights determined by comparison to protein ladders (BenchMark, Invitrogen, and Kaleidoscope, BioRad). Film images were digitized and analyzed using a UVP phosphoimager.

MDCK cells [3] = experiment: HGF-dependent MDCK cell proliferation (MTT); assay type: cell-based, canine; conditions: 10^−10 M, 4 days, HGF 10 ng/ml
Protocol: 5000 MDCK cells were seeded into the wells of a 96 well plates in 10% FBS DMEM. To induce cellular quiescence, the cells were serum deprived for 24 h prior to initiating the treatments. Following serum starvation, 10 ng/ml HGF alone and with various concentrations of 6-AH analogs or PBS vehicle were added to the media. The cells were allowed to grow under these conditions for 4 days with a daily addition of 6-AH analogs. On the fourth day, 1 mg/ml of 1-(4, 5-Dimethylthiazol-2-yl) 3, 5-diphenylformazan reagent (MTT, Sigma-Aldrich) prepared in PBS was added to the cells and incubated for 4 h. Dimethyl sulfoxide diluted in a 0.01M glycine buffer was added to solubilize the cell membranes and the absorbance of reduced MTT in the buffer was quantitated at 590 nm using a plate reader (Biotek Synergy 2, Winooski, Vt.). HGF-dependent proliferation was determined by subtracting the basal proliferation (in the absence of HGF) from total proliferation rates in groups containing HGF.

MDCK cells [4] = experiment: Inhibition of HGF-dependent scattering in MDCK cells; assay type: cell-based, canine; conditions: HGF 20 ng/ml, 48 h
Protocol: (§1) MDCK cells were grown to 100% confluency on the coverslips in six-well plates and washed twice with PBS. The confluent coverslips were then aseptically transferred to new six well plates containing 900 μl serum free DMEM. Norleual, Hinge peptide, and/or HGF (20 ng/ml) were added to appropriate wells. Control wells received PBS vehicle. Plates were incubated at 37° C. with 5% CO2 for 48 hours. Media was removed and cells were fixed with methanol. Cells were stained with Diff-Quik Wright-Giemsa (Dade-Behring, Newark, Del.) and digital images were taken. Coverslips were removed with forceps and more digital images were captured. Pixel quantification of images was achieved using Image J and statistics were performed using Prism 5 and InStat v.3.05.
as §1, with “h.” for “hours.”, “v.3.05 (GraphPad; San Diego, Calif.).” for “v.3.05.”

[5] = Microsomal metabolism, rat liver microsomes; assay type: in vitro ADME; conditions: over 90 min, data not shown
in vivo = conditions: male, Sprague-Dawley, rat, iv, 24 mg/kg
Protocol: Male Sprague-Dawley rats (250+g) were allowed food (Harlan Teklad rodent diet) and water ad libitum in our AAALAC certified animal facility. Rats were housed in temperature-controlled rooms with a 12 h light/dark cycle. The right jugular veins of the rats were catheterized with sterile polyurethane Hydrocoat™ catheters (Access Technologies, Skokie, Ill., USA) under ketamine (Fort Dodge Animal Health, Fort Dodge, Iowa, USA) and isoflurane (Vet One™, MWI, Meridian, Id., USA) anesthesia. The catheters were exteriorized through the dorsal skin. The catheters were flushed with heparinized saline before and after blood sample collection and filled with heparin-glycerol locking solution (6 mL glycerol, 3 mL saline, 0.5 mL gentamycin (100 mg/mL), 0.5 mL heparin (10,000 u/mL)) when not used for more than 8 h. The animals were allowed to recover from surgery for several days before use in any experiment, and were fasted overnight prior to the pharmacokinetic experiment. […]
Pharmacokinetic analysis was performed using data from individual rats. The mean and standard deviation (SD) were calculated for the group. Non-compartmental pharmacokinetic parameters were calculated from serum drug concentration-time profiles by use of WinNonlin® software (Pharsight, Mountain View, Calif., USA).

[6] = system: B16-F10 murine melanoma cells; experiment: B16-F10 melanoma lung colony formation; assay type: in vivo, mouse; conditions: C57BL/6 mice, daily IP 10 μg/kg/day or 100 μg/kg/day, 14 days
Protocol: Six to eight month old C57BL/6 mice were injected with 400,000 B16-F10 cells in 200 μl PBS by tail vein injection and subsequently received daily intraperitoneal injections of either D-Nle-X-Cys-NH—(CH2)5—CONH2 (10 μg/kg and 100 μg/kg) or a PBS vehicle control. Two weeks later, mice were anesthetized and lungs were perfused with PBS and removed. Photos were taken and lungs were solubilized in 1% Triton x-100, 20 mM Tris, 0.15 M NaCl, 2 mM EDTA, and 0.02% sodium azide. Samples were disrupted by sonication (Mixonix, Farmingdale, N.Y.) and spun. The supernatant was transferred to a 96 well plate and melanin absorbance at 410 nm was measured using a plate reader.

T1 sequence (P14210 32-728): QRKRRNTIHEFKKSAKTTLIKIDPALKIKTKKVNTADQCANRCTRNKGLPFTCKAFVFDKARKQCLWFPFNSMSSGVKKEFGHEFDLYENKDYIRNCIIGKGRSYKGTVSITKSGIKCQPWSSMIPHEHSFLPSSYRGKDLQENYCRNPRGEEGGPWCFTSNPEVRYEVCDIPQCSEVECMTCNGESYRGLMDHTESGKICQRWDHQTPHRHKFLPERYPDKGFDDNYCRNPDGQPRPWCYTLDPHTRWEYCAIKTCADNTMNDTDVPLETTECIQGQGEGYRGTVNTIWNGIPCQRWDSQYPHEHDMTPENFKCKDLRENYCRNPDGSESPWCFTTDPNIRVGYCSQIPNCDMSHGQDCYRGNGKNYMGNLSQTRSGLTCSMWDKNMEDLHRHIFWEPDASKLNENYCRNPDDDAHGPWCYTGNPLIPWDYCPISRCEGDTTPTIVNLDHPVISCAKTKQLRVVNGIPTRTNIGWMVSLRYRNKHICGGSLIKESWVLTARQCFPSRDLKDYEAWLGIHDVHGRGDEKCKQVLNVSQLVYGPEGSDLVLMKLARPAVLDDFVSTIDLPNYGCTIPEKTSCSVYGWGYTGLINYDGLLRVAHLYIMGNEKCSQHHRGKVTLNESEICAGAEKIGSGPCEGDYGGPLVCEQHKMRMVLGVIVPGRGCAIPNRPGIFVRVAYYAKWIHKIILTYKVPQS

SMILES	affinity for HGF (in words) (HGF [1])	inhibition of HGF dimerization (HGF [2])	inhibition of HGF dimerization (HGF [2]; listed as Tyr)	inhibition of HGF-dependent Met phosphorylation (Met)	inhibition of HGF-dependent MDCK cell proliferation (MDCK cells [3])	inhibition of HGF-dependent scattering in MDCK cells (MDCK cells [4])	Phase I metabolism in rat liver microsomes [5]	C0 (in vivo) [µg/mL]	inhibition of HGF dimerization (HGF [2]; listed as Cys)	pulmonary colonization by B16-F10 melanoma cells [6]
CCCC[C@@H](N)C(=O)N[C@@H](Cc1ccc(O)cc1)C(=O)N[C@H](C(=O)NCCCCCC(N)=O)[C@@H](C)CC (H-[dNle]YI[Ahx]-NH2)	bind HGF with high affinity	completely block HGF dimer formation	statistically different than the HGF treated group	able to block Met auto-phosphorylation	marked inhibitory activity	different from the HGF alone group but not different from the control group	no detectable metabolism over 90 min	68.2 ± 32.2	–	–
CCCC[C@@H](N)C(=O)N[C@@H](CS)C(=O)N[C@H](C(=O)NCCCCCC(N)=O)[C@@H](C)CC [D-Nle-Cys-Ile-NH—(CH2)5—CONH2] (H-[dNle]CI[Ahx]-NH2)	bind HGF with high affinity	completely block HGF dimer formation	–	able to block Met auto-phosphorylation	marked inhibitory activity	different from the HGF alone group but not different from the control group	–	–	statistically different than the HGF treated group	suppressed pulmonary colonization; also recorded: radically prevented lung colonization; also recorded: obvious reduction in melanoma colonies
